Assay results reported in patent US10688113B2 (priority 2015, dated 2020).

Tests used:
[1] = system: corneal mechanical sensitivity (allodynia); assay: Corneal mechanical sensitivity (allodynia), Von Frey filaments, trephine-injured cornea plus capsaicin; type: in vivo, male C57BL/6 mice; conditions: mice, 10 mM topical twice-daily for 5 days, capsaicin 100 μM, vs 1×PBS
Method: During this test, de-epithelialization of the corneal epithelium of the left eye of the mouse is carried out using a 1.5 mm diameter trephine. This surgery is carried out under a surgical microscope. This procedure lasts at most 3 minutes per animal. The depth and surface area of corneal de-epithelialization are standardized and then evaluated by a slit-lamp examination. The advantage of this surgical tool is standardization of the injury. The 8-week-old male C57BL/6 mice thus treated receive a twice-daily treatment for 5 days of the compound of formula I or PBS before the application of capsaicin.
Additional pain is induced by capsaicin (100 μM). Corneal mechanical sensitivity (allodynia) was measured using Von Frey filaments, 5 days after treatment, on mice treated with compound 1 (10 mM), with compound 2 (10 mM) or, for the control group, with 1×PBS (n=5 animals per group). The results obtained are presented in FIG. 6 (y-axis: weight of the Von Frey filament in grams). The histogram on the left (black) represents the response of mice treated with PBS, the histogram in the middle represents the response of mice treated with compound 1 and the histogram on the right represents the response of mice treated with compound 2.

[2] = system: capsaicin-induced ocular pain (100 μM); assay: Capsaicin test (100 μM) after chronic twice-daily treatment on trephine-injured cornea; type: in vivo, male C57BL/6 mice; conditions: mice, trephine corneal injury, 10 mM topical twice-daily for 4 days, capsaicin 100 μM 15 min after last instillation; vs PBS
Method: The compounds of formula I of the present invention were also tested, in 8-week-old male C57BL/6 mice (JANVIER LABS), using a capsaicin test (100 μM) after twice-daily treatment for 5 days of the compound of formula I on cornea injured beforehand (with a 1.5 mm diameter trephine).
Analgesic effect of compound 2 in the model of capsaicin-induced ocular pain (100 μM). A corneal epithelial injury was made on the right cornea of male C57BL/6 mice (JANVIER LABS) using a 1.5 mm diameter trephine. Once the animals were operated on, a twice-daily topical treatment, for 4 days, is carried out with 1×PBS (5 animals per group) or with 10 mM compound 2 (5 animals per group). On day 4, 15 minutes after the last instillation, 100 μM capsaicin is instilled and the behavioural analysis is performed. The results obtained corresponding to the trephine injury alone before capsaicin are shown in FIG. 5 (y-axis: palpebral closure time in seconds).
During this test, de-epithelialization of the corneal epithelium of the left eye of the mouse is carried out using a 1.5 mm diameter trephine. This surgery is carried out under a surgical microscope. This procedure lasts at most 3 minutes per animal. The depth and surface area of corneal de-epithelialization are standardized and then evaluated by a slit-lamp examination. The advantage of this surgical tool is standardization of the injury. […]

[3] = system: mechanical allodynia induced by 0.2% BAC; assay: Keratitis induced by chronic instillation of 0.2% benzalkonium chloride (BAC), Von Frey filaments; type: in vivo, male C57BL/6 mice; conditions: mice, 0.2% BAC for 6 days then 10 mM twice-daily for 5 days; vs 1×PBS
Source text: Chronic instillation of 0.2% benzalkonium chloride induces chronic inflammation of the cornea with generation of ocular pain (Launay et al. (2016) Neurobiol. Dis., 88 16-28). This model was used as a model of chemical keratitis.
Study of corneal sensitivity in mice treated twice-daily with compound 2 for 5 days first treated with 0.2% BAC for 6 days. The corneal mechanical sensitivity of male C57BL/6 mice, treated with 0.2% BAC for 6 days, then twice-daily with compound 2 for 5 days, was evaluated at various times using Von Frey filaments, compared with a control group receiving twice-daily 1×PBS (n=10 animals per group). The use of Von Frey filaments (applied to the centre of the cornea of a conscious animal) is perfectly feasible for measuring corneal mechanical allodynia in mice. In the context of dry eye, the technique produces mechanical allodynia in the patient: the simple fact of closing the eyelid induces a painful sensation. Lastly, this behavioural test is most like the one used in human clinical practice (Cochet-Bonnet) to measure corneal mechanical sensitivity.
The results obtained are presented in FIG. 7 (y-axis: weight of the Von Frey filament in grams). The histogram on the left represents the response of mice treated with PBS, while the histogram on the right represents the response of mice treated with compound 2.

[4] = system: capsaicin-induced ocular pain (33 mM); assay: Capsaicin-induced ocular pain, acute treatment (single instillation 15 min before capsaicin); type: in vivo, New Zealand white rabbits; conditions: rabbit, single instillation of 10 mM, 15 min before capsaicin 33 mM; compared with capsazepine 5 mM
Method: In order to study the pharmacological activity of the present invention in the case of ocular pain, the compounds of formula (I) were tested using the model of capsaicin-induced ocular pain. In this model, previously used in the literature (Gonzalez et al. (1993) Invest. Ophthalmol. Vis. Sci., 34(12), 3329-3335), in adult rabbits, the number of lid-squeezing movements, the degree of palpebral opening, miotic response and conjunctival vasodilation evoked by a bilateral instillation of 30 μL of capsaicin (33 mM) were measured at different times after administration of the drug. To that end, the responses to this test in eyes pre-treated with various calcium antagonists (diltiazem, verapamil or nifedipine) were compared with those that had received only vehicle.
The procedure and the timing were as follows:
Evaluation of corneal pain by observing conjunctival hyperaemia after pain induction (a single instillation of 1% capsaicin (33 mM) in the right eye) in albino rabbits. Pre-treatment with the compound to be tested, 15 min before capsaicin instillation.

[5] = system: LPS-induced bacterial keratitis; assay: LPS-induced inflammation model (corneal scratch, LPS 50 μg) followed by capsaicin instillation; type: in vivo; conditions: mice, LPS 50 μg days 1 and 4, 10 mM twice-daily for 5 days, capsaicin 100 μM on day 5, vs PBS
Method: Bacterial lipopolysaccharide (LPS, endotoxin) is a potent stimulator of inflammatory responses and contributes to microbial keratitis and to corneal ulcers (Khatri et al. 2002 Invest. Ophthal. Vis. Sci., 43 2278-2284).
Effect of compound 2 in a model of LPS-induced inflammation (50 μg). A corneal epithelial injury (scratch) is made with a trephine (1.5 mm diameter) in mice, followed by topical treatment with LPS (50 μg, two administrations on days 1 and 4) then twice-daily chronic treatment for 5 days with 1×PBS (control group) or with compound 2 (10 mM) (n=6 animals per group), followed by capsaicin instillation (100 μM) on day 5. The results obtained are presented in FIG. 8 (y-axis: palpebral closure time in seconds). The histogram on the left represents the response of mice treated with PBS, while the histogram on the right represents the response of mice treated with compound 2.

[6] = system: capsaicin-induced ocular pain; conditions: rabbits, 1 to 28 mM administered 15 minutes before application of capsaicin; cited from earlier work
[7] = system: contractile responses to capsaicin; conditions: morphine 5×100 μM; cited from earlier work
[8] = system: capsaicin-induced blinking; conditions: cited from earlier work

## CC(OC(=O)N[C@@H](C)P(=O)([O-])C[C@@H](Cc1ccc(-c2ccccc2)cc1)C(=O)N[C@@H](C)C(=O)[O-])OC(=O)C(C)C.[Na+].[Na+] (stereo partly shown) [compound 2]
[1]
  mechanical sensitivity measured with Von Frey filaments: significant decrease
[2]
  analgesic effect (cumulative palpebral closure time) in the capsaicin test: very significant analgesic effect (shorter cumulative palpebral closure time)
[3]
  mechanical allodynia induced by 0.2% BAC (Von Frey filaments): significantly reduced (higher sensitivity threshold)
[4]
  analgesic effect on conjunctival hyperaemia following pain induction by capsaicin: superior to the reference product, capsazepine
  analgesic effect on palpebral opening following pain induction by capsaicin: superior to the reference product, capsazepine
[5]
  analgesic effect (cumulative palpebral closure time) in LPS-induced keratitis: very significant analgesic effect (shorter cumulative palpebral closure time)

## COc1ccc([C@@H]2Sc3ccccc3N(CCN(C)C)C(=O)[C@@H]2OC(C)=O)cc1 [diltiazem]
[6]
  capsaicin-induced scratching movements, conjunctival hyperaemia, eye closure and elevated aqueous protein concentration: significantly decreased

## C[C@H](NC(=O)[C@H](Cc1ccc(-c2ccccc2)cc1)CP(=O)([O-])[C@H](C)N)C(=O)[O-].[Na+].[Na+] [compound 1]
[1]
  mechanical sensitivity measured with Von Frey filaments: significant decrease
[4]
  analgesic effect on conjunctival hyperaemia following pain induction by capsaicin: superior to the reference product, capsazepine
  analgesic effect on palpebral opening following pain induction by capsaicin: superior to the reference product, capsazepine

## CN1CC[C@]23c4c5ccc(O)c4O[C@H]2[C@@H](O)C=C[C@H]3[C@H]1C5 [morphine]
[7]
  contractile responses to capsaicin: partially inhibited
[8]; applied to healthy, non-inflamed rat cornea
  blinking, healthy non-inflamed rat cornea: no effect on blinking
[8]; rats, topical application of a drop, 5 μM
  capsaicin-induced blinking: attenuates capsaicin-induced blinking in a concentration-dependent manner
